Data on twelve compounds can be found in patent US11584775B2, “C4-modified oleanolic acid derivatives for inhibition of IL-17 and other uses” (REATA PHARMACEUTICALS, INC., priority 2015, dated 2023).

A value given as a limit tells only on which side of the number the result lay.

One assay concerns hIL17. Put plainly: IL-17 release from differentiated primary human T-cells (IL-17A HTRF assay). Type of assay: cell-based. Conditions: inhibition of IL-17A levels; primary human CD4+ T cells differentiated into Th17 cells, 46-hour incubation. The method, boiled down: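 Cryopreserved primary human CD4+ T cells were activated with anti-CD3/CD28 beads and driven to Th17 with TGF-β, IL-6, IL-23 and IL-1β in the presence of compound (2-500 nM or 4-1000 nM) for 46 h at 37° C. Supernatant IL-17A was quantified by HTRF against a standard curve and normalized to DMSO. IC50s came from variable-slope fits, with viability read by CyQuant.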
Background: In TR-FRET formats the signal depends on donor and acceptor labels being close together.

The target in another assay is T1, human RORγ (Homo sapiens, UniProt P51449).
T1 sequence (P51449 269-508 limits assumed): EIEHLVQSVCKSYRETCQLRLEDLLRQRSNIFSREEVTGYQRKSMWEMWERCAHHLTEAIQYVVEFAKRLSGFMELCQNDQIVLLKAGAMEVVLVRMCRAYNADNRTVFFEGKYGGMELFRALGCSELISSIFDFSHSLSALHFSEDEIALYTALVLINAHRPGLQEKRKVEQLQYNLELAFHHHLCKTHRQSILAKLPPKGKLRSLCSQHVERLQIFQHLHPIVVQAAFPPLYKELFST
Put plainly: RORγ assay (GAL4-RORγ hybrid luciferase reporter, inverse-agonist activity). The assay is classed as cell-based. Conditions: GAL4-RORγ hybrid reporter cells, 23 hours. Put shortly: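 Human cell line expressing GAL4-DBD/RORγ hybrid with UAS-driven luciferase, treated in triplicate with compound (0.4–200 nM or 2–1000 nM) for 23 h at 37 °C. Luminescence normalized to DMSO; viability measured in parallel by multiplex assay. IC50 for RORγ and viability by variable-slope nonlinear regression.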
Background: Reporter assays use an easily measured gene product as a stand-in for the process of interest.

The test system of another assay is NRF2. Put plainly: AREc32 luciferase reporter assay. Conditions: EC2×: concentration required to increase GST ARE Luciferase reporter activity by 2-fold; AREc32 cells, 19 hours. The assay is classed as cell-based, human. The method, boiled down: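 AREc32 cells (MCF-7 stably carrying eight rat GSTA2 ARE copies driving firefly luciferase) treated 19 h with compound (0.4–200 nM or 2–1000 nM), triplicate. Luminescence normalized to DMSO as fold-induction; variable-slope fit capped at 50-fold; EC2× = concentration giving 2-fold induction.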

Assay [1] concerns IFNγ-induced Nitric Oxide production. Put plainly: Nitric oxide production assay in RAW 264.7 mouse macrophages. The assay is classed as cell-based. Conditions: RAW264.7, suppression of IFNγ-induced NO production normalized to cell viability (WST-1), RAW 264.7, 24 hours IFNγ. The method, boiled down: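 Cells pre-treated 2 h with compound (0.4-200 nM or 2-1000 nM) in RPMI 1640 + 0.5% FBS, then stimulated with recombinant mouse IFNγ for 24 h at 37 °C. Nitrite measured by Griess reagent, viability by WST-1; IC50 from NO suppression normalized to viability and to DMSO/IFNγ controls.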

Usually IC50 stands for the midpoint of a concentration-inhibition curve. As to `CC(=O)OC[C@]1(C)C(=O)C(C#N)=C[C@]2(C)C3=CC(=O)[C@]45OC(=O)[C@@]6(CCC(C)(C)C[C@H]64)CC[C@@]5(C)[C@]3(C)CC[C@H]21` [Compound T32, ((4R,4aR,6aR,6bS,8aS,12aR,12bS,14bS)-2-cyano-4,6a,6b, 11,11,14b-hexamethyl-3,13,16-trioxo-4,4a,5,6,6a,6b,7,8,10,11,12,12a,13,14b-tetradecahydro-3H,9H-12b,8a-(epoxymethano)picen-4-yl)methyl acetate], the IC50 in the assay with hIL17 came to 28 nM; at human RORγ it was 118 nM; in assay [1] it was 115 nM. Besides, the “EC2x: concentration giving 2-fold induction of ARE luciferase reporter” value with NRF2 stood at 243 nM.
Consider `CC1(C)CC[C@@]23CC[C@@]4(C)[C@]5(C)CC[C@H]6[C@](C)(O)C(=O)C(C#N)=C[C@]6(C)C5=CC(=O)[C@]4(OC2=O)[C@@H]3C1` [Compound T33, (4S,4aR,6aR,6bS,8aS,12aR,12bS,14bS)-4-hydroxy-4,6a,6b, 11,11,14b-hexamethyl-3,13,16-trioxo-4,4a,5,6,6a,6b,7,8,10,11,12,12a,13,14b-tetradecahydro-3H,9H-12b,8a-(epoxymethano)picene-2-carbonitrile], for which the IC50 in the assay with hIL17 was found to be 25 nM; on human RORγ it was 220 nM; in assay [1] it was 79.9 nM. Besides, the “EC2x: concentration giving 2-fold induction of ARE luciferase reporter” value in the assay with NRF2 is listed as 120 nM.
As for `COC(=O)[C@]1(C)C(=O)C(C#N)=C[C@]2(C)C3=CC(=O)[C@]45OC(=O)[C@@]6(CCC(C)(C)C[C@H]64)CC[C@@]5(C)[C@]3(C)CC[C@@H]12` [Compound T34, methyl (4S,4aR,6aR,6bS,8aS,12aR,12bS,14bS)-2-cyano-4,6a,6b, 11,11,14b-hexamethyl-3,13,16-trioxo-4,4a,5,6,6a,6b,7,8,10,11,12,12a,13,14b-tetradecahydro-3H,9H-12b,8a-(epoxymethano)picene-4-carboxylate], the IC50 came out at 46 nM in the assay with hIL17, 268 nM at human RORγ and 383 nM in assay [1]. Also, the “EC2x: concentration giving 2-fold induction of ARE luciferase reporter” value with NRF2 is reported as 377 nM.
Take `CNC(=O)[C@]1(C)C(=O)C(C#N)=C[C@]2(C)C3=CC(=O)[C@]45OC(=O)[C@@]6(CCC(C)(C)C[C@H]64)CC[C@@]5(C)[C@]3(C)CC[C@@H]12` [Compound T35, (4S,4aR,6aR,6bS,8aS,12aR,12bS,14bS)-2-cyano-N,4,6a,6b, 11,11,14b-heptamethyl-3,13,16-trioxo-4,4a,5,6,6a,6b,7,8,10,11,12,12a,13,14b-tetradecahydro-3H,9H-12b,8a-(epoxymethano)picene-4-carboxamide]: the IC50 with hIL17 was 68 nM; on human RORγ it was 413 nM; in assay [1], above 1000 nM. Further, in the assay with NRF2, the “EC2x: concentration giving 2-fold induction of ARE luciferase reporter” value was above 1000 nM.
On to `CC1(C)CC[C@@]23CC[C@@]4(C)[C@]5(C)CC[C@H]6[C@](C)(C(N)=O)C(=O)C(C#N)=C[C@]6(C)C5=CC(=O)[C@]4(OC2=O)[C@@H]3C1` [Compound T37, (4S,4aR,6aR,6bS,8aS,12aR,12bS,14bS)-2-cyano-4,6a,6b, 11,11,14b-hexamethyl-3,13,16-trioxo-4,4a,5,6,6a,6b,7,8,10,11,12,12a,13,14b-tetradecahydro-3H,9H-12b,8a-(epoxymethano)picene-4-carboxamide], for which the results for the IC50 (with hIL17; at human RORγ; in assay [1]) were 336 nM, 1350 nM and above 1000 nM, respectively. The “EC2x: concentration giving 2-fold induction of ARE luciferase reporter” value in the assay with NRF2 was above 1000 nM.
For the compound `COC(=O)[C@]12CCC(C)(C)C[C@H]1[C@@]1(O)C(=O)C=C3[C@@]4(C)C=C(C#N)C(=O)[C@@](C)(O)[C@@H]4CC[C@@]3(C)[C@]1(C)CC2` [Compound T38, methyl (4aS,6aS,6bR,8aR,9S,12aS,14aS,14bR)-11-cyano-9,14a-dihydroxy-2,2,6a,6b,9,12a-hexamethyl-10,14-dioxo-1,3,4,5,6,6a,6b,7,8,8a,9,10,12a,14,14a,14b-hexadecahydropicene-4a(2H)-carboxylate], the IC50 stood at 16 nM with hIL17, 177 nM at human RORγ and 57.2 nM in assay [1]. Also, the “EC2x: concentration giving 2-fold induction of ARE luciferase reporter” value in the assay on NRF2 is on record as 80 nM.
For the compound `COC(=O)N[C@]12CCC(C)(C)C[C@H]1[C@H]1C(=O)C=C3[C@@]4(C)C=C(C#N)C(=O)[C@@](C)(O)[C@@H]4CC[C@@]3(C)[C@]1(C)CC2` [Compound T39, methyl ((4aS,6aR,6bS,8aR,9S,12aS,14aR,14bS)-11-cyano-9-hydroxy-2,2,6a,6b,9,12a-hexamethyl-10,14-dioxo-1,3,4,5,6,6a,6b,7,8,8a,9,10,12a,14,14a,14b-hexadecahydropicen-4a(2H)-yl)carbamate], the IC50 with hIL17 amounted to 47 nM; on human RORγ, 364 nM; in assay [1] it was 91.2 nM. Also, the “EC2x: concentration giving 2-fold induction of ARE luciferase reporter” value with NRF2 was found to be 218 nM.
Regarding `COC(=O)N[C@]12CCC(C)(C)C[C@H]1[C@H]1C(=O)C=C3[C@@]4(C)C=C(C#N)C(=O)[C@@](C)(CO)[C@@H]4CC[C@@]3(C)[C@]1(C)CC2` [Compound T40, methyl ((4aS,6aR,6bS,8aR,9R,12aS,14aR,14bS)-11-cyano-9-(hydroxymethyl)-2,2,6a,6b,9,12a-hexamethyl-10,14-dioxo-1,3,4,5,6,6a,6b,7,8,8a,9,10,12a,14,14a,14b-hexadecahydropicen-4a(2H)-yl)carbamate], the IC50 in the assay with hIL17 is 37 nM; on human RORγ it was 698 nM; in assay [1], 24.6 nM. Besides, the “EC2x: concentration giving 2-fold induction of ARE luciferase reporter” value in the assay with NRF2 was 130 nM.
As for `COC(=O)N[C@]12CCC(C)(C)C[C@H]1[C@H]1C(=O)C=C3[C@@]4(C)C=C(C#N)C(=O)[C@@](C)(COC(C)=O)[C@@H]4CC[C@@]3(C)[C@]1(C)CC2` [Compound T41, ((4R,4aR,6aS,6bR,8aS,12aS,12bR,14bS)-2-cyano-8a-((methoxycarbonyl)amino)-4,6a,6b, 11,11,11,14b-hexamethyl-3,13-dioxo-3,4,4a,5,6,6a,6b,7,8,8a,9,10,11,12,12a,12b,13,14b-octadecahydropicen-4-yl)methyl acetate], the IC50 stood at 35 nM with hIL17, 135 nM at human RORγ and 151 nM in assay [1]. The “EC2x: concentration giving 2-fold induction of ARE luciferase reporter” value with NRF2 is given as 330 nM.
For the compound `Cc1nnc([C@]23CCC(C)(C)C[C@H]2[C@H]2C(=O)C=C4[C@@]5(C)C=C(C#N)C(=O)[C@@](C)(CO)[C@@H]5CC[C@@]4(C)[C@]2(C)CC3)o1` [Compound T42, (4R,4aR,6aS,6bR,8aS,12aS,12bR,14bS)-4-(hydroxymethyl)-4,6a,6b, 11,11,14b-hexamethyl-8a-(5-methyl-1,3,4-oxadiazol-2-yl)-3,13-dioxo-3,4,4a,5,6,6a,6b,7,8,8a,9,10,11,12,12a,12b,13,14b-octadecahydropicene-2-carbonitrile], the IC50 in the assay on hIL17 was found to be 101 nM; at human RORγ it was 389 nM; in assay [1], 10.4 nM. Besides, the “EC2x: concentration giving 2-fold induction of ARE luciferase reporter” value in the assay with NRF2 worked out at 97 nM.
Consider `CC(=O)OC[C@]1(C)C(=O)C(C#N)=C[C@]2(C)C3=CC(=O)[C@@H]4[C@@H]5CC(C)(C)CC[C@]5(c5nnc(C)o5)CC[C@@]4(C)[C@]3(C)CC[C@H]21` [Compound T43, ((4R,4aR,6aS,6bR,8aS,12aS,12bR,14bS)-2-cyano-4,6a,6b, 11,11,14b-hexamethyl-8a-(5-methyl-1,3,4-oxadiazol-2-yl)-3,13-dioxo-3,4,4a,5,6,6a,6b,7,8,8a,9,10,11,12,12a,12b,13,14b-octadecahydropicen-4-yl)methyl acetate], for which the IC50 was determined as 46 nM with hIL17, 146 nM on human RORγ and 110 nM in assay [1]. Further, the “EC2x: concentration giving 2-fold induction of ARE luciferase reporter” value in the assay with NRF2 amounted to 369 nM.
Regarding `Cc1nnc([C@]23CCC(C)(C)C[C@H]2[C@H]2C(=O)C=C4[C@@]5(C)C=C(C#N)C(=O)[C@@](C)(O)[C@@H]5CC[C@@]4(C)[C@]2(C)CC3)o1` [Compound T44, (4S,4aR,6aS,6bR,8aS,12aS,12bR,14bS)-4-hydroxy-4,6a,6b, 11,11,14b-hexamethyl-8a-(5-methyl-1,3,4-oxadiazol-2-yl)-3,13-dioxo-3,4,4a,5,6,6a,6b,7,8,8a,9,10,11,12,12a,12b,13,14b-octadecahydropicene-2-carbonitrile], the IC50 with hIL17 was 50 nM; at human RORγ, 236 nM; in assay [1], 72.8 nM. In addition, the “EC2x: concentration giving 2-fold induction of ARE luciferase reporter” value with NRF2 was found to be 156 nM.
